B1: Pteridium aquilinum fern oxime synthase 1 (PaqFOS1), recombinant with N-terminal 6xHis tag (enzyme, UniProt A0A7H1KPE2 1-543, looked up)
chain: MAPNVPSAMYTTCLPERTALQEKLSGDRAALAARVCIVGAGVTGLCACKHLLQHGVESVVLEMQTGVGGVWRNTFSSTKLQTPRDAFQYSDFLWPPGTPRLPSHAQVLDYLESYARKFQVLERIVFNCRVLEVRRLDLEGPPPVSAFQKLPANAKWAVRVQQGSADLTQLDAEWLYFEYVLVCVGHYGDIAKTPKFAVPSKGPQAFHGKVLHSLDYSKLDEAATKKLLTGKRVIVVGSRKSALDAVMEASNSNRGPDGKPVTLLFRTPHWVIAHHFFYGIPMSYMTSRFSQLLVPQPGGGSTLHDIISAALSPLRWALSKALEFYLLSTLPLAEHGFVPNQNIFEEFKSCKLTLLPEHFFDYVKEGHIKLQKTSTWCFSSNGVTLPNGDELEADVIILCTGYEGERKIKSLLGTSFEDILQENDSSIPLYRGVLPPRIPNMAILGFQESYSNLFSAEMSARWVAYWIAGKIALPNKEIMEMEAYKWLRNTKPFMTINDKTCVNTTALQLADQMCRDMGWNSRRKKSLLQEIFAPYGNMDYKDE
notes: identical to the 543 aa ORF of Pa22758 except for a single amino acid substitution; calculated mass 62.5 kDa; codon optimized for E. coli; No removal of the His tag is described; also called Paq18302; Paq18302 FMO
B2: Arabidopsis thaliana flavin-dependent monooxygenase 1 (AtFMO1), recombinant with upstream 6xHis tag (enzyme, A. thaliana, UniProt Q9LMA1 1-530, looked up)
chain: MASNYDKLTSSRVAIIGAGVSGLAAAKNLVHHNPTVFEASDSVGGVWRSCTYETTKLQSARVDYEFSDFPWPNNRDDTTFPPYLEILDYLESYAKHFDLLKFMKFGSKVIEVRFIGDGETPQMVDLGAYGNLLPGKPVWEVAVQIGDSGDIQWHAFEFVVVCTGKYGDVPRIPAFPAKKGPEMFQGKVMHSMDYCKLEKEEASTLLSGKKVAVIGFKKSAIDLALESALANQGEGGKACTMVVRTTHWGIPHYWVWGLPFFLFYSSRASQFLHDRPNQSFLRTLFCLLFSLLRAVVSKFIESYVLWKLPLEKYGLKPNHSFEEDYASCQMAIIPENFFEEADKGMIRFKKSSKWWFYEEGIVFEDGTTLEADVVILATGYDGKKKLKAIVPEPFRTWLEFPSGVMPLYRGTIHPLIPNMGFVGYVQSSSNLHTSELRSMWLSRLVDEKFRLPSKEKMLDQFLKEMEVTRNSSRFYKRHCISTFSIQHADDMCNDMGLNPWRKSNFLLEAFSPYGSQDYRLGQEEKEDMTA
notes: AtFMO1 from Arabidopsis thaliana (Q9LMA1), codon optimized for E. coli; The methods describe the isolation for PaqFOS1 only; AtFMO1 is said to have been expressed and isolated in parallel; source: E. coli BL21(DE3)-R3, pET-30a(+), expressed and isolated in parallel to PaqFOS1

Legend:
[1] = molecular target: T1, PaqFOS1 (Pteridium aquilinum, UniProt A0A7H1KPE2); assay: absorbance spectrometry; SEC monitored at […] nm; type: binding; conditions: cofactor of the isolated protein; 50 mM HEPES pH 7.5, 150 mM NaCl, 0.5 mM TCEP
T1 construct: gene FOS1; full-length, N-terminal 6xHis, codon-optimised, pET-30a(+), E. coli BL21(DE3)-R3; methods print contig as Paq18305

[2] = molecular target: T1, PaqFOS1; assay: absorbance spectrometry; SEC monitored at […] nm; type: binding; conditions: cofactor of the isolated protein; 50 mM HEPES pH 7.5, 150 mM NaCl, 0.5 mM TCEP; remark: listed apart in the source
[3] = molecular target: the molecule itself; assay: SEC; HiLoad 16/60 Superdex 200 calibrated with a high molecular weight kit (43 to 669 kDa); 50 mM HEPES pH 7.5, 150 mM NaCl, 0.5 mM TCEP; after His-Trap purification; self-association (dimer)

| Molecule | stoichiometry N [3] | other results |
| --- | --- | --- |
| Cc1cc2nc3c(=O)[nH]c(=O)nc-3n(C[C@H](O)[C@H](O)[C@H](O)COP(=O)(O)OP(=O)(O)OC[C@H]3O[C@@H](n4cnc5c(N)ncnc54)[C@H](O)[C@@H]3O)c2cc1C [FAD] |  | absorbance spectrometry; SEC monitored at 450 nm [1]: The isolated PaqFOS1 protein binds the cofactors FAD and NADPH as demonstrated by absorbance spectrometry |
| NC(=O)C1=CN([C@@H]2O[C@H](COP(=O)(O)OP(=O)(O)OC[C@H]3O[C@@H](n4cnc5c(N)ncnc54)[C@H](OP(=O)(O)O)[C@@H]3O)[C@@H](O)[C@H]2O)C=CC1 [NADPH] |  | absorbance spectrometry; SEC monitored at 254 nm [2]: The isolated PaqFOS1 protein binds the cofactors FAD and NADPH as demonstrated by absorbance spectrometry |
| B1 | 2 |  |
| B2 | 2 |  |

Reference: paper PMC7486406, “A flavin-dependent monooxygenase catalyzes the initial step in cyanogenic glycoside synthesis in ferns” (Communications Biology, 2020)
